The assay addresses αvβ1 integrin (αvβ1 expressing CHO cells) (Homo sapiens (Human), UniProt P05556+P06756). Kind of assay: Cell adhesion assay: inhibition of αvβ1 expressing CHO cells attaching to TGFβ1LAP. It counts as cell-based. The note with it: 1 h at 37° C., crystal violet absorbance 595 nm, read-out: αvβ1 Inhibition IC50 (nM)-range. The protocol:
Example B1—Cell Adhesion Assay
In order to determine the potency, the compounds were assessed for their ability to inhibit αvβ1 expressing CHO cells attach to TGFβ1LAP. Microplates were coated overnight with 2 ug/ml TGFβ1LAP at 4° C., and blocked with 2% BSA/PBS for 30 min before the assay. Cells were detached and washed in PBS. After that the cells were resuspended in DMEM at 1.0×10^6 cells/ml, fifty microliter of cell suspension and fifty microliter of compound solution were added into the plate. The plates were incubated for one hour at 37° C. in humidified 5% carbon dioxide. Non-adherent cells were removed by centrifugation top side down at 58 g for 5 min. The attached cells were fixed and stained with 0.5% crystal violet (in 20% methanol and 1% formaldehyde) and the wells washed with PBS. Crystal violet was dissolved in 2% Triton-X in PBS. The relative number of cells in each well was evaluated by the absorbance at 595 nm in a microplate reader (Tecan). IC50 values were determined by non-linear regression with four parameters (Graphpad Prism 7.01, Y=Bottom+(Top−Bottom)/(1+10^((Log IC50−X)*HillSlope)).
The compounds tested were compound samples prepared according to procedures described in the Synthetic Examples section, with the stereochemical purity as indicated in the Examples indicated for Example or Compound No. 1-62. The compounds tested were predominantly S-configuration at the alpha carbon of the amino acid scaffold, except for compounds 123, 124, and 125 which were predominantly R-configuration at the alpha carbon of the amino acid scaffold. “Example or Compound No.” in Table B-1 refers to the compound illustrated in the examples for Example or Compound Nos. 1-62 (the compounds of Examples 1-62 are labeled as Compounds 1-62 in Table 1). “Example or Compound No.” in Table B-1 refers to the compound number as indicated in Table 1 or Table 2 for Example or Compound Nos. 63-126.

Counter-ions that a name gives are not always drawn.

αvβ1 integrin (αvβ1 expressing CHO cells), sequence (P06756 31-889): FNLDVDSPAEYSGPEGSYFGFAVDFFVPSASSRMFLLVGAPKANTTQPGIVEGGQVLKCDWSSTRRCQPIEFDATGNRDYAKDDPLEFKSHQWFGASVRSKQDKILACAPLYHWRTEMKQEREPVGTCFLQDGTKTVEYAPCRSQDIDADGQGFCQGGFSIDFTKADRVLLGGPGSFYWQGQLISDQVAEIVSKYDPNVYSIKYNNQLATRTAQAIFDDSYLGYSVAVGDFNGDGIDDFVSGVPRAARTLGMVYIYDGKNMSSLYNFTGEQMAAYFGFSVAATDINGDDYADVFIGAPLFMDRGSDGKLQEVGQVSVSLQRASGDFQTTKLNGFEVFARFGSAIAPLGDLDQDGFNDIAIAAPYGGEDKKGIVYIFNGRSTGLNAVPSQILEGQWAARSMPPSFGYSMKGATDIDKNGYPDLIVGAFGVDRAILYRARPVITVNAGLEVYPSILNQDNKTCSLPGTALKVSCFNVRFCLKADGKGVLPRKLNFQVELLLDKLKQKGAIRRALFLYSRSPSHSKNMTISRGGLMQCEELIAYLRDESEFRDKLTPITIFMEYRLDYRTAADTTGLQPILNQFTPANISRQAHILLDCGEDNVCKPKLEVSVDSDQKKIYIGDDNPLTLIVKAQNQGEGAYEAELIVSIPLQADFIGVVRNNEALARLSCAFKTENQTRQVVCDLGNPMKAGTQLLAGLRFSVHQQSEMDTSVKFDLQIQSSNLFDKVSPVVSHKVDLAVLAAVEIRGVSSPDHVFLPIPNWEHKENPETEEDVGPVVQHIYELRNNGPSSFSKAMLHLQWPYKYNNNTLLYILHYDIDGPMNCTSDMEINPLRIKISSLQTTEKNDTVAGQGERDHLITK
αvβ1 integrin (αvβ1 expressing CHO cells), sequence (P06756 891-1048 partner): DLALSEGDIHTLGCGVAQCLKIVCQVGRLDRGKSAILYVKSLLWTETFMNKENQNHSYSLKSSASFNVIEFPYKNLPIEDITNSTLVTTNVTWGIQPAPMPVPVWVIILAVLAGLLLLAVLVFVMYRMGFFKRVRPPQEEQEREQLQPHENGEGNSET
αvβ1 integrin (αvβ1 expressing CHO cells), sequence (P05556 21-798): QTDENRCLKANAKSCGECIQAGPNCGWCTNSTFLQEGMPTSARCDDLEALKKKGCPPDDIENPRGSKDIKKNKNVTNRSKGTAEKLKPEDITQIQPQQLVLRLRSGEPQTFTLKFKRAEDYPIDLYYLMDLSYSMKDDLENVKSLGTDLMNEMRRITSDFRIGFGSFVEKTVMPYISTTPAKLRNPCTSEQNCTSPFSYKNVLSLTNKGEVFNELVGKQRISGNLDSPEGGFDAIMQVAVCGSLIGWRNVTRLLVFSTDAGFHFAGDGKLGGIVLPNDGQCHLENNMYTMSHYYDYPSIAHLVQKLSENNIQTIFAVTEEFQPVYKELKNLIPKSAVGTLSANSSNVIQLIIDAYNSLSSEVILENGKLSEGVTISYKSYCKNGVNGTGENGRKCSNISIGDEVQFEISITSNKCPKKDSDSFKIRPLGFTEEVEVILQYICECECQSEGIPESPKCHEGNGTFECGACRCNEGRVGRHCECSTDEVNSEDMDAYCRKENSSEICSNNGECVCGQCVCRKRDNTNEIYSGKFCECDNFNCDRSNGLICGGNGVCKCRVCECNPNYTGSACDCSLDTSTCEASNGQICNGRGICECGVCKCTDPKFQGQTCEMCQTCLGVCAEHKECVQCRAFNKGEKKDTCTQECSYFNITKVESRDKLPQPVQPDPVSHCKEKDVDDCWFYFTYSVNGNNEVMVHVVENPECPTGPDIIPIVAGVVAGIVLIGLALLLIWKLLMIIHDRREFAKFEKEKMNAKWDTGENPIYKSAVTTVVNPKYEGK

As to `Cn1ncc2ccc(C(=O)N[C@@H](Cc3ccc(OCCCc4ccc5c(n4)NCCC5)cc3)C(=O)O)cc21` [Example 41, (2S)-2-[(1-methylindazole-6-carbonyl)amino]-3-[4-[3-(5,6,7,8-tetrahydro-1,8-naphthyridin-2-yl)propoxy]phenyl]propanoic acid], the IC50 was under 50 nM.

On to `N#Cc1ccc(C(=O)N[C@@H](CCCCCCCc2ccc3c(n2)NCCC3)C(=O)O)c(F)c1` [Compound 101], for which the IC50 is under 50 nM.

Turning to `Cn1cc2ccc(C(=O)N[C@@H](Cc3ccc(OCCCc4ccc5c(n4)NCCC5)cc3)C(=O)O)cc2n1` [Example 44, (2S)-2-[(2-methylindazole-6-carbonyl)amino]-3-[4-[3-(5,6,7,8-tetrahydro-1,8-naphthyridin-2-yl)propoxy]phenyl]propanoic acid], the IC50 was under 50 nM.

For the compound `O=C(N[C@@H](Cc1ccc(OCCCc2ccc3c(n2)NCCC3)cc1)C(=O)O)c1c(Cl)cccc1Cl` [Example 16, (S)-2-(2,6-dichlorobenzamido)-3-(4-(3-(5,6,7,8-tetrahydro-1,8-naphthyridin-2-yl)propoxy)phenyl)propanoic acid], the half-inhibitory concentration (IC50) is under 50 nM.

Regarding `Cn1ncc2c(C(=O)N[C@@H](CCCCCCCc3ccc4c(n3)NCCC4)C(=O)O)cccc21` [Compound 115], the IC50 was 250 to 1000 nM.

Consider `O=C(N[C@@H](Cc1ccc(OCCCCNC2=NCCNC2)cc1)C(=O)O)c1c(Cl)cccc1Cl` [Example 56, (S)-2-(2,6-dichlorobenzamido)-3-(4-(4-((3,4,5,6-tetrahydropyrazin-2-yl)amino)butoxy)phenyl)propanoic acid], for which the IC50 was in the range of 250 to 1000 nM.

With `O=C(N[C@@H](Cc1ccc(COCCc2ccc3c(n2)NCCC3)cc1)C(=O)O)c1c(Cl)cccc1Cl` [Example 29, (S)-2-(2,6-dichlorobenzamido)-3-(4-((2-(5,6,7,8-tetrahydro-1,8-naphthyridin-2-yl)ethoxy)methyl)phenyl)propanoic acid trifluoroacetate], the IC50 is under 50 nM.

For the compound `O=C(N[C@@H](CCCCCCCc1ccc2c(n1)NCCC2)C(=O)O)c1ccc2c(cnn2C(F)F)c1` [Compound 107], the IC50 was 250 to 1000 nM.

In the case of `Cn1ncc2ccc(C(=O)N[C@@H](CCCCCCCc3ccc4c(n3)NCCC4)C(=O)O)cc21` [Compound 102], the IC50 was in the range of 50 to 250 nM.

For the compound `N#Cc1ccc(Cl)c(C(=O)N[C@@H](CCCCCCCc2ccc3c(n2)NCCC3)C(=O)O)c1` [Compound 100], the IC50 was under 50 nM.

In the case of `O=C(N[C@@H](Cc1ccc(OCCCc2ccc3c(n2)NCCC3)cc1)C(=O)O)c1ccc2[nH]ncc2c1` [Example 42, (2S)-2-(1H-indazole-5-carbonylamino)-3-[4-[3-(5,6,7,8-tetrahydro-1,8-naphthyridin-2-yl)propoxy]phenyl]propanoic acid], the IC50 was under 50 nM.

Take `O=C(N[C@@H](Cc1ccc(N2CC(Cc3ccc4c(n3)NCCC4)C2)cc1)C(=O)O)c1c(Cl)cccc1Cl` [Example 21, (S)-2-(2,6-dichlorobenzamido)-3-(4-(3-((5,6,7,8-tetrahydro-1,8-naphthyridin-2-yl)methyl)azetidin-1-yl)phenyl)propanoic acid]: the 50% inhibitory concentration (IC50) is over 1000 nM.

Regarding `O=C(N[C@@H](C/C=C/CCCCc1ccc2c(n1)NCCC2)C(=O)O)c1c(Cl)cccc1Cl` [Example 20, (S,E)-2-(2,6-dichlorobenzamido)-9-(5,6,7,8-tetrahydro-1,8-naphthyridin-2-yl)non-4-enoic acid], the IC50 was under 50 nM.

Regarding `O=C(N[C@@H](Cc1ccc(OCCCCNC2=NCCS2)cc1)C(=O)O)c1c(Cl)cccc1Cl` [Example 62, (S)-2-(2,6-dichlorobenzamido)-3-(4-(4-((4,5-dihydrothiazol-2-yl)amino)butoxy)phenyl)propanoic acid], the IC50 is under 50 nM.

Turning to `Cn1cc2cc(C(=O)N[C@@H](Cc3ccc(OCCCc4ccc5c(n4)NCCC5)cc3)C(=O)O)ccc2n1` [Example 45, (2S)-2-[(2-methylindazole-5-carbonyl)amino]-3-[4-[3-(5,6,7,8-tetrahydro-1,8-naphthyridin-2-yl)propoxy]phenyl]propanoic acid], the 50% inhibitory concentration (IC50) is under 50 nM.

As for `O=C(N[C@@H](Cc1ccc(OCCCC2CCc3cccnc3N2)cc1)C(=O)O)c1c(Cl)cccc1Cl` (stereo partly drawn) [Example 27, (2S)-2-(2,6-dichlorobenzamido)-3-(4-(3-(1,2,3,4-tetrahydro-1,8-naphthyridin-2-yl)propoxy)phenyl)propanoic acid], the IC50 is under 50 nM.

As to `CC(C)(CCNc1ccccn1)Nc1ccc(C[C@H](NC(=O)c2c(Cl)cccc2Cl)C(=O)O)cc1` [Example 26, (S)-2-(2,6-dichlorobenzamido)-3-(4-((2-methyl-4-(pyridin-2-ylamino)butan-2-yl)amino)phenyl)propanoic acid], the 50% inhibitory concentration (IC50) is over 1000 nM.

Consider `O=C(N[C@@H](Cc1ccc(OCCCc2ccc3c(n2)NCCC3)cc1)C(=O)O)c1cnc(C(F)F)cn1` [Example 3, (S)-2-(5-(difluoromethyl)pyrazine-2-carboxamido)-3-(4-(3-(5,6,7,8-tetrahydro-1,8-naphthyridin-2-yl)propoxy)phenyl)propanoic acid], for which the IC50 is under 50 nM.

For the compound `O=C(N[C@@H](CCCCCCCc1ccc2c(n1)NCCC2)C(=O)O)c1cccc2[nH]ncc12` [Compound 116], the IC50 is under 50 nM.

For the compound `O=C(N[C@@H](CCCCCCCc1ccc2c(n1)NCCC2)C(=O)O)c1ccc(-c2cccnc2)cc1` [Compound 111], the IC50 is 250 to 1000 nM.

As to `Cn1cc2cc(C(=O)N[C@@H](CCCCCCCc3ccc4c(n3)NCCC4)C(=O)O)ccc2n1` [Compound 109], the IC50 lay within 50 to 250 nM.

As for `O=C(N[C@@H](CCCCCCCCNC1=NCCCO1)C(=O)O)c1c(Cl)cccc1Cl` [Example 51, (S)-2-(2,6-dichlorobenzamido)-10-((5,6-dihydro-4H-1,3-oxazin-2-yl)amino)decanoic acid], the IC50 was over 1000 nM.

Regarding `CN1CCN=C(NCCCCCCCC[C@H](NC(=O)c2c(Cl)cccc2Cl)C(=O)O)C1=O` [Example 53, (S)-2-(2,6-dichlorobenzamido)-10-((4-methyl-3-oxo-3,4,5,6-tetrahydropyrazin-2-yl)amino)decanoic acid], the IC50 was over 1000 nM.

For `O=C(N[C@@H](CCCCCCCc1ccc2c(n1)NCCC2)C(=O)O)c1ccc2nn(C(F)F)cc2c1` [Compound 106], the IC50 lay within 250 to 1000 nM.

`O=C(NC(Cc1ccc(OCC2CCC(Nc3ccccn3)CC2)cc1)C(=O)O)c1c(Cl)cccc1Cl` [Example 25, (S)-2-(2,6-dichlorobenzamido)-3-(4-(((1s,4R)-4-(pyridin-2-ylamino)cyclohexyl)methoxy)phenyl)propanoic acid]: the IC50 is 50 to 250 nM.

On to `O=C(NC(Cc1ccc(OCCCC2Cc3cccnc3N2)cc1)C(=O)O)c1c(Cl)cccc1Cl` (stereo not shown) [Example 18, 2-(2,6-dichlorobenzamido)-3-(4-(3-(2,3-dihydro-1H-pyrrolo[2,3-b]pyridin-2-yl)propoxy)phenyl)propanoic acid], for which the IC50 was under 50 nM.

Regarding `O=C(N[C@@H](CCCCCCCc1ccc2c(n1)NCCC2)C(=O)O)c1ccc2[nH]ncc2c1` [Compound 103], the concentration for half-maximal inhibition (IC50) lay within 50 to 250 nM.

For the compound `Cn1cc2cc(C(=O)NC(CCCCCCCc3ccc4c(n3)NCCC4)C(=O)O)ccc2n1` (stereo not shown) [Compound 86, 2-(2-methyl-2H-indazole-5-carboxamido)-9-(5,6,7,8-tetrahydro-1,8-naphthyridin-2-yl)nonanoic acid], the IC50 was in the range of 50 to 250 nM.

As a reminder, the IC50 is the concentration that gives 50% inhibition.

The record behind these values is US20230365556A1, “N-ACYL AMINO ACID COMPOUNDS AND METHODS OF USE” (Pliant Therapeutics, Inc., priority 2016, published 2023).
